Laboratory results as given in patent US10869931B2, “Polyethylene glycol-modified angiogenesis inhibitor HM-1 and application thereof” (NANJING ANJI BIOLOGICAL TECHNOLOGY CO.,LTD, priority 2016, dated 2020).
Marks after values point to notes of the source that are not given here. Where no end group is shown, it is not given here.

What was measured:
[1] = tested on: retinal neovascular clusters in OIR C57/B16 mice; experiment: Retinal blood vessels in OIR mice; type: in vivo, mouse; settings: for Neovascular clusters area: retina evaluated on day 17; for Inhibition rate: neovascular clusters area vs control, day 17
Description: Establishment of the OIR model: Exposure of young mouse and their mothers to 75% hyperoxic environment from day 7 to day 12 after birth of C57/B16 mice caused rapid disappearance of capillaries in the central retina. Upon returning to the indoor air on the 12th day, the retinal blood vessels, upon exposing to hyperoxia, rapidly disappeared, causing extensive abnormal neovascularization, and the central portion of the retina remained largely avascular for a long time. After the blood vessels disappeared completely, on the 13th day, physiological saline (negative control group), mPEG-SC-HM-1, mPEG2-NHS-HM-1, mPEG-ALD10k-HM-1, and mPEG-bALD-HM-1, were administered by intravitreal injection and retinal vessels were evaluated on day 17 (to label unclosed vessels, […] of Texas Red-labeled tomato lectin was injected into the left ventricle and circulated for 5 min).

[2] = tested on: IL-1β production by mouse peritoneal macrophages; experiment: IL-1β production by mouse peritoneal macrophages (ELISA); type: cell-based; settings: 48 h
Method: (1) IL-1β production: mice were intraperitoneally injected with 1 mL of broth (containing 6%) starch, and three days later, the mouse peritoneal macrophages were aseptically taken, washed twice with 1640 medium, and the cell concentration was adjusted to 2×10^6 cells/mL, inject into a 24-well culture plate, 1 mL per well, incubate for 3 hours in a cell culture incubator, shake once every 30 minutes, and allow the cells to fully adhere. Then, it was washed twice with the culture solution to remove unattached cells. The blank group was added with PBS, the positive group was added with the positive drug dexamethasone (Dex), the model group was not administered, to the experimental group was added low, medium and high three concentrations of mPEG-HM-1, and the culture was continued for 48 hours after the administration, 1000 r/min. Centrifuge for 15 min. The supernatant was taken as a sample for testing activity of IL-1β.
(2) Determination of IL-1β content: using R&D mouse IL-1β enzyme-linked immunosorbent assay kit, according to the kit instructions as follows: respectively, the tested samples and different concentrations of standard products, sealed with sealing tape the reaction well and incubated at 37° C. for 90 min; the plate was washed four times; the biotinylated antibody working solution (100 μL/well) was added, and the reaction well was sealed with sealing paper, incubated at 37° c. for 60 min; the plate was washed four times; Add the enzyme conjugate working solution (100 μL/well), seal the reaction well with sealing paper, incubate at 37° C. for 30 min; wash the plate four times; add color reagent (100 μL/well), incubate at 37° C. 10-20 min, add stop solution (100 μL/well), mix and measure OD450 value.

[3] = tested on: choroidal neovascularization in BN rats; experiment: Laser-induced choroidal neovascularization in BN rats (FFA); type: in vivo, rat
Method: 6-8 weeks old male BN rats were anesthetized with 846 compound anesthetic 0.5 mL/kg administered intraperitoneally. The eye drops of compound tropamide eyes were used 5 minutes before laser photocoagulation, and the pupils of both eyes were fully scattered. Fix animals, with the aid of −53.00 D contact lens, around the optic disc and along the same distance from the optic disc 2PD, the laser beam photocoagulation were performed to make a total of 8 photo-condensation spots, with laser wavelength of 647.1 nm, power of 350 mW, photocoagulation spot diameter and time were 50 μm and 0.05 s, respectively. Immediately after photocoagulation, fundus photography was performed. FFA, histopathology and transmission electron microscopy were performed at 3, 7, 14, 21, and 28 days after photocoagulation.
It was confirmed by fundus photography and FFA examination that the fluorescein leakage of photocoagulation peaked on the 21st day after photocoagulation, and histopathological examination was performed at the same time. […] A large number of neovascular vessels were seen, and red blood cells were visible in the lumen. Microscopically, capillary cells in the choroidal melanocytes were cohesively altered and endothelial cells aggregated.
Rats that were successfully modeled were randomly divided into groups of 5 rats each. They were labeled as negative control group, mPEG-SC-HM-1 treatment group, mPEG2-NHS-HM-1 treatment group, mPEG-ALD-HM-1 treatment group and mPEG-bALD-HM-1 treatment group, respectively. Saline, mPEG-HM-1 (see Table 53 for dosing) was administered intravitreally, once daily for 1 week. FFA examinations were performed 3 days, 7 days, 14 days, and 28 days after administration of the modified peptides.

[4] = in vivo
[5] = tested on: carrageenan-induced toe swelling in SD rats; experiment: Carrageenan-induced acute toe swelling in rats; type: in vivo, rat; set-up: Swelling: unit not given here
Method: SD rats were divided into blank model group, dexamethasone-positive group (5 mg/kg) and mPEG-HM-1 test group. The drug was administered once a day, and the model group was given the same volume of normal saline for 3 days and fed normally. At the first hour after the last administration, 0.1 mL of 1% carrageenan was injected subcutaneously into the right hind paw of the rats to induce inflammation. The volume of the foot was measured at 1 h, 3 h, 5 h, and 7 h after inflammation. The degree of swelling of the foot was calculated according to the following formula: the degree of swelling of the foot (mL)=the volume of the foot after inflammation−the volume before inflammation. Record the number of milliliters of spilled liquid (method: use the ballpoint pen to circle as the measurement mark at the protruding point of the right joint, and then put the right hind foot of each mouse into the volume measuring device, so that the hind limb is exposed outside the cylinder, and the depth of the immersion was determined by coinciding the circle with the liquid surface. After the foot enters the liquid, the liquid level rises, and the volume of the overflow liquid is the volume of the right hind foot of the rat, and the normal volume of the right hind foot of each mouse is sequentially determined).

[6] = 25 μg intravitreal injection on day 13
[7] = Day 3 after administration, 25 μg intravitreally once daily for 1 week (Table 53)
[8] = Day 3 after administration, 25 μg intravitreally once daily for 1 week (Table 53), total spots 290-296 by table
[9] = Day 7, 25 μg intravitreally once daily for 1 week (Table 53)
[10] = Day 7, 25 μg intravitreally once daily for 1 week (Table 53), total spots 182-188 by table
[11] = Day 14, 25 μg intravitreally once daily for 1 week (Table 53)
[12] = Day 14, 25 μg intravitreally once daily for 1 week (Table 53), total spots 132-138 by table
[13] = Day 28, 25 μg intravitreally once daily for 1 week (Table 53)
[14] = Day 28, 25 μg intravitreally once daily for 1 week (Table 53), total spots 67-71 by table

Substance | Neovascular clusters area [1, 6] [mm^2] | Inhibition rate ([1]; 25 μg intravitreal) | IL-1β ([2]; 5 μg/mL) [pg/mL] | Inhibition Rate of IL-1β production ([2]; 5 μg/mL) [%] | IL-1β ([2]; 10 μg/mL) [pg/mL] | Inhibition Rate of IL-1β production ([2]; 10 μg/mL) [%] | IL-1β ([2]; 20 μg/mL) [pg/mL] | Inhibition Rate of IL-1β production ([2]; 20 μg/mL) [%] | CNV Incidence rate [3, 7] [%] | leakage Spots # [3, 8] | CNV Incidence rate [3, 9] [%] | leakage Spots # [3, 10] | CNV Incidence rate [3, 11] [%] | leakage Spots # [3, 12] | CNV Incidence rate [3, 13] [%] | leakage Spots # [3, 14] | AUC0-∞ [4] [mg/L/h] | CL [4] [L/h/kg] | MRT0-∞ [4] [h] | T1/2β (half-life) [4] [h] | further results
mPEG2-NHS5k-Arg-Gly-Ala-Asp-Arg-Ala-Gly-Gly-Gly-Gly-Arg-Gly-Asp ({mPEG2‑NHS 5 kDa}-RGADRAGGGGRGD) [mPEG2-NHS5k-HM-1] | 0.119 ± 0.007 | 46.35%* | 763.97 ± 15.46 | 17.51 | 681.45 ± 12.09 | 26.42 | 563.37 ± 13.21 | 39.17 | 56.12 | 165 | 55.49 | 101 | 45.99 | 63 | 48.53 | 33 | 4789.25 ± 12.08 | 0.0527 ± 0.0112 | 8.02 ± 5.04 | 8.85 ± 0.10 | Swelling ([5]; 10 mg/kg once a day for 3 days, 1 h after carrageenan): 0.25 ± 0.13; Swelling ([5]; 10 mg/kg once a day for 3 days, 3 h after carrageenan): 0.36 ± 0.12; Swelling ([5]; 10 mg/kg once a day for 3 days, 5 h after carrageenan): 0.43 ± 0.17; Swelling ([5]; 10 mg/kg once a day for 3 days, 7 h after carrageenan): 0.31 ± 0.15; Swelling ([5]; 20 mg/kg once a day for 3 days, 1 h after carrageenan): 0.22 ± 0.11; Swelling ([5]; 20 mg/kg once a day for 3 days, 3 h after carrageenan): 0.32 ± 0.21; Swelling ([5]; 20 mg/kg once a day for 3 days, 5 h after carrageenan): 0.36 ± 0.12; Swelling ([5]; 20 mg/kg once a day for 3 days, 7 h after carrageenan): 0.32 ± 0.16
mPEG-bALD5k-Arg-Gly-Ala-Asp-Arg-Ala-Gly-Gly-Gly-Gly-Arg-Gly-Asp ({mPEG‑bALD 5 kDa}-RGADRAGGGGRGD) [mPEG-bALD5k-HM-1] | 0.108 ± 0.008 | 51.17%** | 729.25 ± 18.34 | 20.92 | 659.63 ± 16.52 | 28.47 | 533.11 ± 10.87 | 42.19 | 55.29 | 162 | 52.43 | 97 | 47.10 | 65 | 46.38 | 32 | 4782.29 ± 11.37 | 0.0498 ± 0.0097 | 8.46 ± 6.95 | 9.35 ± 0.12 | –
mPEG-bALD40k-Arg-Gly-Ala-Asp-Arg-Ala-Gly-Gly-Gly-Gly-Arg-Gly-Asp ({mPEG‑bALD 40 kDa}-RGADRAGGGGRGD) [mPEG-bALD40k-HM-1] | – | – | – | – | – | – | – | – | – | – | – | – | – | – | – | – | 5065.72 ± 9.56 | 0.0066 ± 0.0066 | 16.75 ± 3.29 | 43.88 ± 0.20 | Neovascular clusters area ([1]; 200 μg intravitreal injection on day 13): 0.110 ± 0.012 mm^2; Inhibition rate ([1]; 200 μg intravitreal): 50.31%**; IL-1β ([2]; 40 μg/mL): 740.78 ± 16.79 pg/mL; Inhibition Rate of IL-1β production ([2]; 40 μg/mL): 19.67%; IL-1β ([2]; 80 μg/mL): 648.10 ± 14.55 pg/mL; Inhibition Rate of IL-1β production ([2]; 80 μg/mL): 29.72%; IL-1β ([2]; 160 μg/mL): 518.91 ± 12.90 pg/mL; Inhibition Rate of IL-1β production ([2]; 160 μg/mL): 43.73%; CNV Incidence rate ([3]; Day 3 after administration, 200 μg intravitreally once daily for 1 week (Table 53)): 52.22%; leakage Spots # ([3]; Day 3 after administration, 200 μg intravitreally once daily for 1 week (Table 53), total spots 290-296 by table): 153; CNV Incidence rate ([3]; Day 7, 200 μg intravitreally once daily for 1 week (Table 53)): 50.81%; leakage Spots # ([3]; Day 7, 200 μg intravitreally once daily for 1 week (Table 53), total spots 182-188 by table): 94; CNV Incidence rate ([3]; Day 14, 200 μg intravitreally once daily for 1 week (Table 53)): 47.10%; leakage Spots # ([3]; Day 14, 200 μg intravitreally once daily for 1 week (Table 53), total spots 132-138 by table): 65; CNV Incidence rate ([3]; Day 28, 200 μg intravitreally once daily for 1 week (Table 53)): 42.03%; leakage Spots # ([3]; Day 28, 200 μg intravitreally once daily for 1 week (Table 53), total spots 67-71 by table): 29
